Data on nine compounds can be found in US7368453B2, “Quinazolinone compounds with reduced bioaccumulation” (Chiron Corporation, priority 2003, dated 2008).

Read-outs that look alike come from different tables or passages of the source.

The series in a line: Tissue half-life (t1/2) and Cmax in plasma, brain, kidney and liver after oral administration to CD-1 mice. Conditions: male, mouse. Format: in vivo, mouse. How it is done:
In vivo studies were conducted to observe the effect of the compounds of the invention in the subject animal. Male CD-1 mice, body weight of 20 grams at arrival, were used in these studies. Mice were given 30 mg/kg of compound in HPMC/Tween solution or suspension via oral gavage. Plasma, brain, and liver samples were collected at time periods of 1, 2, 4, 8, and 24 hours post dosing. One mouse was used per time point. Thus, a total of 5 mice were used for each compound tested. For sample collection, mice were euthanized with CO2. Blood samples were taken by cardiac puncture and kept on ice. Brain and liver samples were collected immediately after bleeding and the samples were kept on dry ice. For calculation of tissue half-lives (t1/2s), the terminal rate constant k was estimated by the absolute value of the slope of a log-linear regression of the terminal phase of the tissue concentration-time profile. The tissue half-life t1/2 is ln(2)/k.
The following table includes t1/2 data for plasma, brain, kidney, and liver obtained after oral administration.
Tissue Half-Life Data for Various Quinazolinone Compounds (PO)

[1] abbreviates: kidney t1/2, 30 mg/kg oral gavage (PO), read-out: Half-Lives (h) Kidney (converted).
The mark [2] stands for this setting: liver t1/2, 30 mg/kg oral gavage (PO), read-out: Half-Lives (h) Liver (converted).
[3] abbreviates: plasma t1/2, 30 mg/kg oral gavage (PO), read-out: Half-Lives (h) Plasma (converted).
[4] abbreviates: brain t1/2, 30 mg/kg oral gavage (PO), read-out: Half-Lives (h) Brain (converted).

For `C[C@@H]1[C@@H](/N=C(/Nc2ccc3c(=O)n(CCc4ccc(Cl)cc4Cl)cnc3c2)N2CC(O)C2)C[C@@H]2C[C@H]1C2(C)C` [Example 337, N-{3-[2-(2,4-dichlorophenyl)ethyl]-4-oxo-3,4-dihydro-7-quinazolinyl}-3-hydroxy-N′-[(1R,2S,3S,5S)-2,6,6-trimethylbicyclo[3.1.1]hept-3-yl]-1-azetidinecarboximidamide], the half-life is 5.1 h under setting [1], 4.6 h under setting [2] and 18.9 h under setting [3].
As to `COc1ccc(CCn2cnc3cc(N/C(=N/[C@H]4C[C@@H]5C[C@H]([C@@H]4C)C5(C)C)N4C[C@@H](C)N(C#N)[C@@H](C)C4)ccc3c2=O)c(F)c1` [Example 301, (3R,5S)-4-cyano-N-(3-{-[2-fluoro-4-(methyloxy)phenyl]ethyl}-4-oxo-3,4-dihydro-7-quinazolinyl]-3,5-dimethyl-N′-[(1R,2S,3S,5S)-2,6,6-trimethylbicyclo[3.1.1]hept-3-yl]-1-piperazinecarboximidamide], the half-life under setting [1] was 9.4 h, the half-life under setting [2] was 3.6 h and the half-life under setting [3] is 2.5 h.
Turning to `COc1ccc(CCn2cnc3cc(N/C(=N/[C@H]4C[C@@H]5C[C@H]([C@@H]4C)C5(C)C)N4CCC[C@H]4CO)ccc3c2=O)c(F)c1` [Example 281, (2S)-N-(3-{2-[2-fluoro-(methyloxy)phenyl]ethyl]-4-oxo-3,4-dihydro-7-quinazolinyl)-2-(hydroxymethyl)-N′-[(1R,2S,3S,5S)-2,6,6-trimethylbicyclo[3.1.1]hept-3-yl]-1-pyrrolidinecarboximidamide], the half-life under setting [1] was 6.5 h and the half-life under setting [3] was 5.3 h.
As to `C[C@@H]1[C@@H](N=C(Nc2ccc3c(=O)n(CCc4ccc(Cl)cc4)c(-c4c[nH]c5ccccc45)nc3c2)N2CC(=O)N[C@@H](C)C2)C[C@H]2C[C@@H]1C2(C)C` [Example 236, (3S)-N-[3-[2-(4-chlorophenyl)ethyl]-2-(1H-indol-3-yl)-4-oxo-3,4-dihydroquinazolin-7-yl]-3-methyl-5-oxo-N′-[(1S,2S,3S,5R)-2,6,6-trimethylbicyclo[3.1.1]hept-3-yl]piperazine-1-carboximidamide], the half-life by setting is: under setting [2], 4.2 h; under setting [3], 7.7 h.
As for `C[C@@H]1[C@@H](N=C(Nc2ccc3c(=O)n(CCc4ccc(Br)cc4F)c(-c4cnccn4)nc3c2)N2CCN[C@@H](C(F)F)C2)C[C@H]2C[C@@H]1C2(C)C` [Example 233, (3R)-N-{3-[2-(4-bromo-2-fluorophenyl)ethyl]-4-oxo-2-pyrazin-2-yl-3,4-dihydroquinazolin-7-yl}-3-(difluoromethyl)-N′-[(1S,2S,3S,5R)-2,6,6-trimethylbicyclo[3.1.1]hept-3-yl]piperazine-1-carboximidamide], the half-life is, setting by setting: under setting [4], 15 h; under setting [2], 44 h; under setting [3], 6.4 h.
Consider `C[C@@H]1[C@@H](N=C(Nc2ccc3c(=O)n(CCc4ccc(Cl)cc4Cl)c(-c4cnccn4)nc3c2)N2CCN[C@@H](C(F)F)C2)C[C@H]2C[C@@H]1C2(C)C` [Example 228, (3R)-N-{3-[2-(2,4-dichlorophenyl)ethyl]-4-oxo-2-pyrazin-2-yl-3,4-dihydroquinazolin-7-yl}-3-(difluoromethyl)-N′-[(1S,2S,3S,5R)-2,6,6-trimethylbicyclo[3.1.1]hept-3-yl]piperazine-1-carboximidamide], for which the half-life under setting [2] is 9.1 h.
For `C[C@@H]1[C@@H](N=C(Nc2ccc3c(=O)n(CCc4ccc(F)cc4)c(CF)nc3c2)N2CCN[C@@H](CF)C2)C[C@H]2C[C@@H]1C2(C)C` [Example 257, (3R)-3-(fluoromethyl)-N-{2-(fluoromethyl)-3-[2-(4-fluorophenyl)ethyl]-4-oxo-3,4-dihydroquinazolin-7-yl}-N′-[(1 S,2S,3S,5R)-2,6,6-trimethylbicyclo[3.1.1]hept-3-yl]piperazine-1-carboximidamide], the half-life under setting [4] is 12 h, the half-life under setting [2] is 3 h and the half-life under setting [3] is 20 h.
For `COc1ccc(CCn2cnc3cc(N/C(=N/[C@H]4C[C@@H]5C[C@H]([C@@H]4C)C5(C)C)N(C)CCO)ccc3c2=O)c(F)c1` [Example 288], the half-life was 1.2 h under setting [2] and 1.1 h under setting [3].
With `C[C@@H]1[C@@H](N=C(Nc2ccc3c(=O)n(CCc4ccc(Br)cc4)c(-c4cccnc4)nc3c2)N2CC(=O)N[C@@H](C)C2)C[C@H]2C[C@@H]1C2(C)C` [Example 230, (3S)-N-{3-[2-(4-bromophenyl)ethyl]-4-oxo-2-pyridin-3-yl-3,4-dihydroquinazolin-7-yl}-3-methyl-5-oxo-N′-[(1S,2S,3S,5R)-2,6,6-trimethylbicyclo[3.1.1]hept-3-yl]piperazine-1-carboximidamide], the half-life under setting [2] is 5.9 h and the half-life under setting [3] is 3.1 h.
